The text below walks through data of patent US20120100186A1, “NANOPARTICULATE-BASED CONTRACEPTIVE/ANTI-HIV COMPOSITION AND METHODS” (Washington University, priority 2010, published 2012).

Data set [1] concerns Immortalized vaginal epithelial cells (VK2/E6E7). Briefly: Vaginal epithelium toxicity (MTT viability). Type of data set: cell-based. The settings on record: concentrations of melittin as low as 1 μM, 12 hours at 37° C., FIG. 1A. As for the experimental part:
For toxicity studies, 7500 cells were added to each well of a 96-well plate and allowed to attach for 24 hours. Melittin or melittin coated PFC-NP were then added and incubated with the cells for 12 hours at 37° C. with shaking at 500 rpm. Cells were washed once with media and incubated with MTT reagent for 4 hours. The colored product was solubilized in DMSO and absorbance at 570 nm was measured using a plate reader.
In more detail, cells were detached from a T75 flask by rinsing with 2-3 mL of trypsin, followed by adding 5 mL trypsin and incubating at 37° C. for 15 minutes. Five mL DMEM-FBS is then added to stop the trypsin, and the mixture is centrifuged at 900 rpm for 5 minutes, supernatant is removed and the cells are resuspended in 5 mL of Keratinocyte-Serum Free Media (Invitrogen™). The cells are diluted to approximately 75,000 cells/mL, and 100 μL of the cell suspension is added to each well of a 96-well plate and incubated for 24 hours at 37° C. The media are replaced with 100 μL of media containing the melittin or melittin-loaded nanoparticles at various concentrations and incubated for 12 hours at 37° C. with shaking at 500 rpm. […]
To each well containing 100 μL of media, 20 μL of MTT reagent (5 mg/mL MTT in PBS) were added, and incubated for 4 hours at 37° C. […] Absorbance is read at 570 nm using a plate reader.

The subject of a further data set is sperm. Briefly: Sperm motility and viability (computer assisted sperm analysis). Type of data set: cell-based, Human. The settings on record: 30 minutes at 37° C., 10 million sperm per mL; FIGS. 5A-5D. As for the experimental part: Human semen samples were obtained from the Washington University in vitro fertilization laboratory and stored at 37° C. until use. Semen was diluted in EmbryoMax® Human Tubal Fluid (HTF) (Millipore) and free melittin or melittin-coupled nanoparticles in HTF was added to achieve a final sperm concentration of 10 million sperm per mL. (For nanoparticles, samples were pipetted up and down 3 times every 10 minutes to keep the nanoparticles suspended.) Samples were incubated in 96-well plates for 30 minutes at 37° C. with shaking at 150 rpm to prevent sperm from settling. Afterwards, Viadent® stain (Hoechst 33258, Hamilton Thorne) was added to achieve a final stain concentration of 10 μg/mL and samples were incubated for an additional 5 minutes. Sperm motility and viability were determined using an IVOS® Computer Assisted Sperm Analyzer (Hamilton Thorne).

`CC[C@H](C)[C@H](NC(=O)CN)C(=O)NCC(=O)N[C@@H](C)C(=O)N[C@H](C(=O)N[C@@H](CC(C)C)C(=O)N[C@@H](CCCCN)C(=O)N[C@H](C(=O)N[C@@H](CC(C)C)C(=O)N[C@H](C(=O)N[C@H](C(=O)NCC(=O)N[C@@H](CC(C)C)C(=O)N1CCC[C@H]1C(=O)N[C@@H](C)C(=O)N[C@@H](CC(C)C)C(=O)N[C@H](C(=O)N[C@@H](CO)C(=O)N[C@@H](Cc1c[nH]c2ccccc12)C(=O)N[C@H](C(=O)N[C@@H](CCCCN)C(=O)N[C@@H](CCCNC(=N)N)C(=O)N[C@@H](CCCCN)C(=O)N[C@@H](CCCNC(=N)N)C(=O)N[C@@H](CCC(N)=O)C(=O)N[C@@H](CCC(N)=O)C(N)=O)[C@@H](C)CC)[C@@H](C)CC)[C@@H](C)O)[C@@H](C)O)C(C)C)C(C)C` [melittin]: in data set [1], the “viability of vaginal epithelium cells” value is “dramatically decrease”. For the same compound, in the data set with sperm, the sperm motility entry is listed as “impeded” and the sperm viability result is “impeded”.
